In PMC11421147 (Journal of Enzyme Inhibition and Medicinal Chemistry, 2024):

Assays:
[1] = biological target: T1, human sPLA2 hG-IIA (Homo sapiens, UniProt P14555); test: Inhibition of sPLA2 activity; format: biochemical; conditions: IC50 ± standard deviation; for IC50: IC50 sPLA2(IIA)
T1 sequence (P14555 21-144): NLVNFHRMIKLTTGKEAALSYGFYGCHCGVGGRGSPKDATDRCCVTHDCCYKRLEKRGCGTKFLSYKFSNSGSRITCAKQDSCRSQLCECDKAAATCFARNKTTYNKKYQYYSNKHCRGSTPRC

[2] = biological target: α-glucosidase (Saccharomyces cerevisiae, UniProt P53341); test: α-Glucosidase inhibitory activity; format: biochemical
Chain of α-glucosidase (P53341 whole entry): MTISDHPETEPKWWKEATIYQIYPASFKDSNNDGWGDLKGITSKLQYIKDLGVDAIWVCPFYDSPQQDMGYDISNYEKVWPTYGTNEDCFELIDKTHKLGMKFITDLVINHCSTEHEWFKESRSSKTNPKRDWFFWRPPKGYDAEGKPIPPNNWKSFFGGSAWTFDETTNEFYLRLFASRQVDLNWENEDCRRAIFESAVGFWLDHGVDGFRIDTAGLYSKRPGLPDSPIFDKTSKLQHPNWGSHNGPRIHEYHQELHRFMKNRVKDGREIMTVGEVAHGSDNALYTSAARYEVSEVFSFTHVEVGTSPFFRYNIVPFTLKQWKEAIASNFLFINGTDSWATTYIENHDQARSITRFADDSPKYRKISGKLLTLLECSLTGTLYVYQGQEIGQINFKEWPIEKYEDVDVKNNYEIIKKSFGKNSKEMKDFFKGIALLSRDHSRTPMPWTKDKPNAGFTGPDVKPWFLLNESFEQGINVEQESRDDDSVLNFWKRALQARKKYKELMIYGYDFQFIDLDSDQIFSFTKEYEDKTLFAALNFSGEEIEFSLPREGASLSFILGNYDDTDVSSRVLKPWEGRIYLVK

[3] = system: human blood paraoxonase-1 (PON1); conditions: cited from earlier work

IC50 [1]	IC50 [2]	IC50 sPLA2(IIA) [1]	Structure (SMILES)	type of inhibition of PON1 [3]
1520 ± 212 nM	2790 ± 500 nM		Cc1ccc(S(=O)(=O)NNc2nc3ccccc3nc2Cl)cc1 [Compound 5b, N’-(3-chloroquinoxalin-2-yl)-4-methylbenzenesulfonohydrazide]	
2590 ± 292 nM	29400 ± 532 nM		O=S(=O)(NNc1nc2ccccc2nc1Cl)c1ccc(C(F)(F)F)cc1 [Compound 5c, N’-(3-chloroquinoxalin-2-yl)-4-(trifluoromethyl) benzenesulfonohydrazide]	
2120 ± 132 nM	13300 ± 263 nM		O=S(=O)(NNc1nc2ccccc2nc1Cl)c1ccc(Br)cc1 [Compound 5d, 4-Bromo-N’-(3-chloroquinoxalin-2-yl)benzenesulfonohydrazide]	
47.5 ± 0.8 nM	3150 ± 32 nM		O=S(=O)(NNc1nc2ccccc2nc1NNS(=O)(=O)c1ccccc1)c1ccccc1 [Compound 6a, N’,N’’’-(quinoxaline-2,3-diyl)dibenzenesulfonohydrazide]	
76.5 ± 1.7 nM	960 ± 112 nM		Cc1ccc(S(=O)(=O)NNc2nc3ccccc3nc2NNS(=O)(=O)c2ccc(C)cc2)cc1 [Compound 6b, N’,N’’’-(quinoxaline-2,3-diyl)bis(4-methylbenzenesulfonohydrazide)]	
2240 ± 1050 nM	95.3 ± 5.4 nM		O=S(=O)(NNc1nc2ccccc2nc1NNS(=O)(=O)c1ccc(C(F)(F)F)cc1)c1ccc(C(F)(F)F)cc1 [Compound 6c, N’,N’’’-(quinoxaline-2,3-diyl)bis(4-trifluoromethylbenzenesulfonohydrazide)]	
4930 ± 241 nM	8290 ± 367 nM	high micromolar	O=S(=O)(NNc1nc2ccccc2nc1NNS(=O)(=O)c1ccc(Br)cc1)c1ccc(Br)cc1 [Compound 6d, N’,N’’’-(quinoxaline-2,3-diyl)bis(4-bromobenzenesulfonohydrazide)]	
			COc1ccc(OC)c(C(O)CNC(=O)CN)c1 (stereo not shown) [Midodrine]	competitive inhibition
			CC(C)NCC(O)COc1ccc(CC(N)=O)cc1 (stereo not shown) [atenolol]	non-competitive inhibition
			CC(C)(C)NCC(O)COc1cccc2c1CC(O)C(O)C2 (stereo not shown) [nadolol]	competitive inhibition
			CC(C)NCC(O)COc1cccc2[nH]ccc12 (stereo not shown) [pindolol]	non-competitive inhibition
